Experimental data: patent US6538037B2, “Methods for preparation and use of 1α,24(S)-dihydroxyvitamin D2” (Bone Care International, Inc., priority 1991, dated 2003)
One block for each molecule: values may come before it.

Legend:
vitamin D receptor (VDR) = test: Vitamin D-inducible growth hormone production in transfected COS-1 cells; type: cell-based, Green monkey; settings: for Total GH Production: averages of duplicate determinations
Description: The biological activity in vitro of chemically synthesized 1α,24(S)-(OH)2D2 and 1α,24(R)-(OH)2D2 was measured using a vitamin D-dependent transcriptional activation model system in which a vitamin D receptor (VDR)-expressing plasmid pSG5-hVDR1/3 and a plasmid p(CT4)^4TKGH containing a Growth Hormone (GH)-gene, under the control of a vitamin D-responsive element (VDRE) were co-transfected into Green monkey kidney, COS-1 cells. DNA's for these two vectors were supplied by Dr. Mark Haussler, Department of Biochemistry, University of Arizona, Tucson, Ariz.
Transfected cells were incubated with vitamin D metabolites and growth hormone production was measured.

[1] = system: 1,25-(OH)2D3 receptor site; settings: Ishizuka et al., Steroids 1981, 1982; cited from earlier work
[2] = Blood metabolite levels in osteoporotic women administered 1α-OH-D2; type: in vivo, human
Description: An increase in the production of 1α,24(S)-(OH)2D2 relative to 1α,25-(OH)2D2 has also been observed by the present inventors in human females who received 1α-OH-D2 as part of an investigation of that drug for the treatment of osteoporosis. Following either a single dose of 2 μg of 1α-OH-D2 or daily doses of 8 μg/day for one week, blood was collected and analyzed for the metabolites 1α,24(S)-(OH)2D2 and 1α,25-(OH)2D2. Lipid was extracted from the blood, and the metabolites were purified by HPLC using standard methods and quantified with the radioreceptor assay produced by Incstar (Stillwater, Minn.). One day after a single 2 μg dose, the level of 1α,24(S)-(OH)2D2 was undetectable with the 1α,25-(OH)2D2 level being approximately 11 pg/ml. In contrast, one day following the last dose of 8 μg, the level of 1α,24(S)-(OH)2D2 averaged 9 pg/mL with the 1α,25-(OH)2D2 level averaging 30 pg/mL.

Hep 3B cells = test: Metabolism of 1α-OH-D2 in Hep 3B cells; type: in vitro ADME, human; settings: Experiment 2, substrate 1α-OH-D2 10 μM, photodiode array spectrophotometry
Description: Substantially pure 1α-(OH)D2 was obtained from Bone Care International, Inc. of Madison, Wis. The 1α-(OH)D2 was cultured for 48 hours with cells derived from a human hepatoma, Hep 3B, in medium devoid of fetal calf serum using known methods in the art.
Lipid extracts of the combined medium and cells were generated by known methods in the art and were subjected to high pressure liquid chromatography (HPLC) on Zorbax-S1L developed with hexane/isopropano/methanol (91:7:2). The putative 1α,24(?)-(OH)2D2 metabolite eluted between the parent 1α-(OH)D2 and standard 1α,25-(OH)2D2 (also obtained from Bone Care International, Inc. of Madison, Wis.). (As used herein, the term “1α,24(?)-(OH)2D2” is meant to indicate that the epimeric form has not been identified.) The 1α,24(?)-(OH)2D2 was further purified by this HPLC system before the metabolite's identification was undertaken using mass spectrometry analysis.
Hep 3B cells were incubated with 1α-OH-D2, as described above, at final concentrations of 1, 10, or 100 nM (Experiment 1), and 1 or 10 μM (Experiment 2) and 1α,24(S)-(OH)2D2 was extracted and purified. The 1α,24(S)-(OH)2D2 and 1α,25-(OH)2D2 metabolites were quantitated by recovered radiolabel (Experiment 1) or by photodiode array spectrophotometry (Experiment 2).

bovine thymus VDR = biological target: T1, bovine thymus VDR (Bos taurus, UniProt Q28037); test: Radioreceptor assay, displacement of 3H-1α,25-(OH)2D3 tracer from bovine thymus VDR; type: binding; settings: for binding affinity to VDR compared with reference standard (in words): environmentally exposed compounds; for ED50 (amount of material to displace 50% of the bound 3H-1α,25-dihydroxyvitamin D3): environmentally exposed crystalline and powdered material, FIG. 5
T1 construct: commercially available reagents of bovine thymus VDR; purchased Incstar (Stillwater, Minn.); host or cells: bovine thymus
T1 sequence (Q28037 1-426): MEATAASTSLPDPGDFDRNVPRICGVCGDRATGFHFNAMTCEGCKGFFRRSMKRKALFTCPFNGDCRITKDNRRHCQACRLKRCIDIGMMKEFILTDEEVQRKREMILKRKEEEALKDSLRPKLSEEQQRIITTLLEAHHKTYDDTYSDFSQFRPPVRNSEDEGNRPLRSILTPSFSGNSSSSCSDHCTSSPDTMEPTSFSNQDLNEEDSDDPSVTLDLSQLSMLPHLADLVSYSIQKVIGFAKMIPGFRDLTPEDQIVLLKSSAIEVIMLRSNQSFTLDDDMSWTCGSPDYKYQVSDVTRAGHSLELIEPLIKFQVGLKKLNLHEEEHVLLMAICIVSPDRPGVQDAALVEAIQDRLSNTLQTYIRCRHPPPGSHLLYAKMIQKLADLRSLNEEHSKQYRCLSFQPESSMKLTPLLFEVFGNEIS
Description: Purified 1α,24(S)-(OH)2D2 was quantitated by photodiode array spectrophotometry and assayed in the radioreceptor assay.
The purified 1α,24(R)-(OH)2D2 and 1α,24(S)-(OH)2D2 epimers were quantitated by ultraviolet spectroscopy.
The binding affinities of the environmentally exposed compounds, crystalline 1α,24-dihydroxyvitamin D2 and powdered 1α,24-dihydroxyvitamin D2, to the vitamin D receptor (VDR) were assessed using methods known in the art, as described, e.g., in Example 6. […] The percent bound versus amount of compound in pg/tube are graphed in FIG. 5.

[3] = cited from earlier work
[4] = Plasma metabolites in vitamin D-deficient rats; type: in vivo, rat; settings: for plasma metabolite after administration: oral or intraperitoneal, vitamin D-deficient rats, HPLC of plasma lipid extracts
Description: Vitamin D2 or 24-OH-D2 was administered (either oral or intraperitoneal supplementation) to vitamin D-deficient rats. Lipid extracts of the plasma were prepared and the metabolites purified by the method of Horst et al. (Horst, R. L., Koszewski, N.J. and Reinhardt, T. A., Biochem., 29:578-82 (1990)) described below for synthesyzing standard biological 1α,24-(OH)2D2.
Standard biological 1α,24-(OH)2D2 was synthesized in vitro from 24-OH-D2 by incubating 10 μg of 24-OH-D2 in flask containing 5 mL of 20% kidney homogenates made from vitamin D-deficient chicks. The product of this reaction was isolated by HPLC and identified by mass spectrometry.

[5] = Chemical stability testing, exposure to heat and light; type: physicochemical; settings: one week; for overall retention of the compound (remained intact): after heat and light; for share of UV absorbing material being 1α,24-dihydroxyvitamin D2 (HPLC): detection at 265 nm; for absorbence at 265 nm retained: specimens exposed to heat and light, reference standard in ethanol in a freezer
Description: Samples of approximately 5 mg of either crystalline or powdered 1α,24-dihydroxyvitamin D2 were each placed in a 5 mL volumetric flask. The flasks were exposed to identical environmental conditions of variations in heat and light. Heat and light are environmental parameters well-known to affect negatively the integrity of vitamin D compounds.
After one week's time, the contents of the flasks were visually inspected. The powdered specimen appeared to be slightly yellow in color compared to the crystalline specimen. Five mL of ethanol was added to each sample and each specimen was dissolved. These solutions were analyzed for ultraviolet absorbence from 200 to 320 nm. A reference standard 1α,24-dihydroxyvitamin D2 dissolved in ethanol at the same concentration and stored in a freezer for the identical time period was similarly analyzed.
The ethanol solutions of the crystalline and powdered 1α,24-dihydroxyvitamin D2 were also analyzed by high performance liquid chromatography (HPLC) under the following conditions: […]

Compound: C=C1/C(=C\C=C2/CCC[C@]3(C)[C@@H]([C@H](C)/C=C/[C@](C)(O)C(C)C)CC[C@@H]23)C[C@@H](O)C[C@@H]1O [1α,24(R)-(OH)2D2, 1α,24(R)-dihydroxyvitamin D2]
- Net vitamin D-inducible GH-production (vitamin D receptor (VDR); inducer 5 × 10^−8 M): 1138 ng/mL
- Total GH Production (vitamin D receptor (VDR); inducer 5 × 10^−8 M): 1182 ng/mL
- Net vitamin D-inducible GH-production (vitamin D receptor (VDR); inducer 10^−7 M): 1256 ng/mL
- Total GH Production (vitamin D receptor (VDR); inducer 10^−7 M): 1300 ng/mL
- Net vitamin D-inducible GH-production (vitamin D receptor (VDR); inducer 10^−8 M): 1056 ng/mL
- Total GH Production (vitamin D receptor (VDR); inducer 10^−8 M): 1100 ng/mL
- Net vitamin D-inducible GH-production (vitamin D receptor (VDR); inducer 10^−9 M): 36 ng/mL
- Total GH Production (vitamin D receptor (VDR); inducer 10^−9 M): 80 ng/mL

Compound: C=C1/C(=C\C=C2/CCC[C@]3(C)[C@@H]([C@H](C)CC[C@@H](O)C(C)C)CC[C@@H]23)C[C@@H](O)C[C@@H]1O [1α,24(R)-(OH)2D3, 1α,24(R)-dihydroxyvitamin D3]
- binding to the 1,25-(OH)2D3 receptor site relative to 1,25-(OH)2D3 [1]: more tightly than does 1,25-(OH)2D3 itself

- blood level of metabolite ([2]; one day after a single 2 μg dose of 1α-OH-D2): approximately 11 pg/ml
- blood level of metabolite (average) ([2]; one day following the last dose of 8 μg/day 1α-OH-D2 for one week): 0.03 ng/mL
- Rate of Production (Hep 3B cells): 7.4 pmol per 10^6 cells/day
- half-maximal binding (bovine thymus VDR; radioreceptor assay, Incstar kit): 80 pg/mL
Compound: C=C1/C(=C\C=C2/CCC[C@]3(C)[C@@H]([C@H](C)/C=C/[C@H](C)C(C)(C)O)CC[C@@H]23)C[C@@H](O)C[C@@H]1O [1α,25-(OH)2D2, 1α,25-dihydroxyvitamin D2, reference compound]

Compound: C=C1/C(=C\C=C2/CCC[C@]3(C)[C@@H]([C@H](C)/C=C/[C@H](C)C(C)C)CC[C@@H]23)C[C@@H](O)C[C@@H]1O [1α-(OH)D2, 1α-hydroxyvitamin D2]
- bone mass in human osteoporotic patients ([3]; dosages of 2.0 μg/day or higher): will reverse the loss of bone mass

Compound: C=C1/C(=C\C=C2/CCC[C@]3(C)[C@@H]([C@H](C)CCCC(C)C)CC[C@@H]23)C[C@@H](O)C[C@@H]1O [1α-(OH)D3, 1α-hydroxyvitamin D3]
- safely obtainable dosage levels ([3]; human, in vivo): dosage levels of 2.0 μg/day or greater are not safely obtained

Compound: C=C1CC[C@H](O)C/C1=C/C=C1\CCC[C@]2(C)[C@@H]([C@H](C)/C=C/C(C)(O)C(C)C)CC[C@@H]12 (some centres unmarked) [24-OH-D2, 24-hydroxyvitamin D2]
- plasma metabolite after administration [4]: one metabolite isolated co-migrated on HPLC with the standard 1α,24-(OH)2D2

Compound: C=C1CC[C@H](O)C/C1=C/C=C1\CCC[C@]2(C)[C@@H]([C@H](C)CCCC(C)(C)O)CC[C@@H]12 [25-OH-D3, 25-hydroxyvitamin D3, reference compound]
- Net vitamin D-inducible GH-production (vitamin D receptor (VDR); inducer 10^−5 M): 731 ng/mL
- Total GH Production (vitamin D receptor (VDR); inducer 10^−5 M): 775 ng/mL
- Net vitamin D-inducible GH-production (vitamin D receptor (VDR); inducer 10^−6 M): 1056 ng/mL
- Total GH Production (vitamin D receptor (VDR); inducer 10^−6 M): 1100 ng/mL
- Net vitamin D-inducible GH-production (vitamin D receptor (VDR); inducer 10^−7 M): 201 ng/mL
- Total GH Production (vitamin D receptor (VDR); inducer 10^−7 M): 245 ng/mL

- ED50 (amount of material to displace 50% of the bound 3H-1α,25-dihydroxyvitamin D3) (bovine thymus VDR; listed as crystalline material): about 10 pg/tube
- overall retention of the compound (remained intact) [5]: over 88%
- share of UV absorbing material being 1α,24-dihydroxyvitamin D2 (HPLC) [5]: 95%
- retention of the structure, weight-based normalization of the HPLC peak area ([5]; listed as crystalline specimen): 93%
- absorbence at 265 nm retained ([5]; listed as crystalline specimen): 93%
Compound: C=C1C(=CC=C2CCCC3(C)C2CCC3C(C)C=CC(C)(O)C(C)C)CC(O)CC1O (stereo not drawn) [crystalline 1α,24-dihydroxyvitamin D2, 1α,24-dihydroxyvitamin D2]
- binding affinity to VDR compared with reference standard (in words) (bovine thymus VDR): approximately the same as that of a reference standard

- binding affinity to VDR compared with reference standard (in words) (bovine thymus VDR): considerably less
- ED50 (amount of material to displace 50% of the bound 3H-1α,25-dihydroxyvitamin D3) (bovine thymus VDR): about 40 pg/tube
- binding activity relative to standard 1α,24-dihydroxyvitamin D2 (bovine thymus VDR; powder form exposed to the same conditions): less than 25%
- overall retention of the compound (remained intact) [5]: 35%
- share of UV absorbing material being 1α,24-dihydroxyvitamin D2 (HPLC) [5]: 78%
- retention of the structure, weight-based normalization of the HPLC peak area ([5]; listed as powdered specimen): 23%
- absorbence at 265 nm retained ([5]; listed as powdered specimen): 45%
Compound: C=C1C(=CC=C2CCCC3(C)C2CCC3C(C)C=CC(C)(O)C(C)C)CC(O)CC1O (stereo not drawn) [powdered 1α,24-dihydroxyvitamin D2, 1α,24-dihydroxyvitamin D2]

- ED50 (amount of material to displace 50% of the bound 3H-1α,25-dihydroxyvitamin D3) (bovine thymus VDR): about 10 pg/tube
- retention of the structure, weight-based normalization of the HPLC peak area [5]: 100%
- share of UV absorbing material being 1α,24-dihydroxyvitamin D2 (HPLC) [5]: 96%
- absorbence at 265 nm retained [5]: 100%
Compound: C=C1C(=CC=C2CCCC3(C)C2CCC3C(C)C=CC(C)(O)C(C)C)CC(O)CC1O (stereo not drawn) [reference standard, 1α,24-dihydroxyvitamin D2]

Compound: C=C1CC[C@H](O)C/C1=C/C=C1\CCC[C@]2(C)[C@@H]([C@H](C)/C=C/[C@H](C)C(C)C)CC[C@@H]12 [vitamin D2]
- plasma metabolite after administration [4]: one metabolite isolated co-migrated on HPLC with the standard 1α,24-(OH)2D2

Compound: C=C1CC[C@H](O)C/C1=C/C=C1\CCC[C@]2(C)[C@@H]([C@H](C)CCCC(C)C)CC[C@@H]12 [vitamin D3]
- 24-hydroxylated metabolite in plasma after administration ([4]; comparable rats): no detectable 24-OH-D3
